In patent US9212168B2 (priority 2011, dated 2015):

Key:
HCV genotype 1b replicon = HCV genotype 1b replicon assay (Renilla luciferase readout); format: cell-based, hepatitis C virus; conditions: for Genotype 1b: HCV genotype 1b replicon
Source text: Assay 1: HCV Genotype 1b Replicon Assay
The HCV genotype 1b replicon cell line was obtained from Apath LLC (Brooklyn, N.Y.) (APC144; Huh7 cell background). This subgenomic replicon contains the N-terminus of the HCV core protein fused to the neomycin-resistance selectable marker. The EMCV IRES lies downstream and drives expression of humanized Renilla luciferase fused to the non-structural proteins NS3-NS5B. This cell line was used to determine compound potency using the luciferase activity readout as a measurement of compound inhibition of replicon levels.
Cells were grown at 37° C. in a 5% CO2 humidified incubator in DMEM (Invitrogen) with 10% FBS (HyClone), 1×NEAA (Invitrogen), 1× Pen-Strep (Invitrogen), and 500 μg/mL G418 (Invitrogen). On day 1 of the assay, cells were plated at 10,000 cells/well in white 96-well tissue culture plates (Costar) in 200 μL media lacking G418. Four hours later, once the cells have adhered, the media was removed and replaced with media (no G418) containing dose-responses of test compounds. Compounds were initially diluted in DMSO and then diluted another 200× in media to bring the final DMSO concentration down to 0.5%. The cells were incubated with test compounds for 48 hours. At the end of the incubation period, media and compound were removed from the plates and the luciferase activity was determined using Promega Renilla-Glo reagents.
To analyze the data, the luciferase activity was plotted vs. the compound concentration, and EC50 values were determined from a 4-parameter robust fit model with the GraphPad Prism software package (GraphPad Software, Inc., San Diego, Calif.). Results are expressed as the negative decadic logarithm of the EC50 value, pEC50.
Test compounds having a higher pEC50 value in this assay show greater inhibition of HCV genotype 1b replication.

HCV genotype 1a replicon = HCV genotype 1a replicon assay (NS3 protease activity readout); format: cell-based, hepatitis C virus; conditions: for Genotype 1a: HCV genotype 1a replicon; for EC50: Hepatitis C virus, read-out: Genotype 1a, HCV genotype 1a replicon
How it was run: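 EC50 values came from a 4-parameter robust fit of fluorescence (ex 340, em 509 nm) produced by NS3-specific protease in lysates, assayed with 15 μM FRET substrate for 20 min at 37° C, after 48 or 72 hours of compound exposure (0.5% DMSO) of Huh7.5-derived APC89 genotype 1a replicon cells.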

Compound	Genotype 1a (HCV genotype 1a replicon)	EC50 (HCV genotype 1a replicon) [nM]	also measured
COC(=O)N[C@H](C(=O)N1C[C@@H](C)C[C@H]1c1nc(-c2ccc(-c3ccc(C(=O)Nc4ccc(N5CCN(C(=O)C(C)(C)C)C[C@H]5C)nc4)cc3OC(F)(F)F)cc2)c(Cl)[nH]1)C1CCOCC1 [Example 22-6]	D (D represents pEC50>10 (EC50<0.1 nM))	–	Genotype 1b (HCV genotype 1b replicon): D (D represents pEC50>10 (EC50<0.1 nM))
COC(=O)N[C@H](C(=O)N1C[C@@H](OC)C[C@H]1c1nc(-c2ccc(-c3ccc(NC(=O)c4ccc(N5CCN(C(=O)C(C)(C)C)C[C@H]5C)nc4)cc3OC(F)(F)F)cc2)c[nH]1)C1CCOCC1 [Example 28-2]	D (D represents pEC50>10 (EC50<0.1 nM))	–	Genotype 1b (HCV genotype 1b replicon): D (D represents pEC50>10 (EC50<0.1 nM))
COC(=O)N[C@H](C(=O)N1C[C@@H](C)C[C@H]1c1nc(-c2ccc(-c3cc(Cl)c(C(=O)Nc4ccc(N5CCN(C(=O)C(C)(C)C)C[C@@H]5C)nc4)cc3OC(F)(F)F)cc2)c[nH]1)C1CCOCC1 [24-1]	C (C represents pEC50 between and 9 and about 10, (EC50 between 1 nM and 0.1 nM))	–	Genotype 1b (HCV genotype 1b replicon): D (D represents pEC50>10 (EC50<0.1 nM))
COC(=O)N[C@H](C(=O)N1C[C@@H](C)C[C@H]1c1nc(-c2ccc(-c3cc(F)c(NC(=O)c4ccc(N5CCN(C(=O)[C@H]6CC6(C)C)C[C@H]5C)nc4)cc3OC(F)(F)F)cc2)c[nH]1)C(C)C [Example 1-10]	D (D represents pEC50>10 (EC50<0.1 nM))	–	Genotype 1b (HCV genotype 1b replicon): D (D represents pEC50>10 (EC50<0.1 nM))
COC(=O)N[C@H](C(=O)N1C[C@@H](C)C[C@H]1c1nc(-c2ccc(-c3cc(Cl)c(C(=O)Nc4ccc(N5CCN(C(=O)C(C)(C)CO)C[C@H]5C)nc4)cc3OC(F)(F)F)cc2)c(Cl)[nH]1)C1CCOCC1 [Example 22-9]	–	< 0.1	EC50 (HCV genotype 1b replicon; Hepatitis C virus, read-out: Genotype 1b): < 0.1 nM
COC(=O)N[C@H](C(=O)N1C[C@@H](C)C[C@H]1c1nc(-c2ccc(-c3ccc(C(=O)Nc4ccc(N5CCN(C(=O)C(C)(C)C)C[C@H]5C)nc4)cc3OC(F)(F)F)cc2)c(F)[nH]1)C(C)C [Example 4-42]	D (D represents pEC50>10 (EC50<0.1 nM))	–	Genotype 1b (HCV genotype 1b replicon): D (D represents pEC50>10 (EC50<0.1 nM))
CCC(=O)NCC(C)(C)C(=O)N1CCN(c2ccc(C(=O)Nc3cc(OC(F)(F)F)c(-c4ccc(-c5c[nH]c([C@@H]6C[C@H](C)CN6C(=O)[C@@H](NC(=O)OC)C(C)C)n5)cc4)cc3Cl)cn2)[C@H](C)C1 [Example 12-41]	–	0.1 to 1	–
COC(=O)N[C@H](C(=O)N1C[C@@H](C)C[C@H]1c1nc(-c2ccc(-c3cc(Cl)c(NC(=O)c4ccc(N5CCN(C(=O)NN(C)C)C[C@H]5C)nc4)cc3OC(F)(F)F)cc2)c[nH]1)C(C)C [Example 1-94]	D (D represents pEC50>10 (EC50<0.1 nM))	–	–
COC(=O)N[C@H](C(=O)N1C[C@@H](C)C[C@H]1c1nc(-c2ccc(-c3cc(Cl)c(C(=O)Nc4ccc(N5CCN(C(=O)C(C)(C)C)C[C@@H]5C)nc4)cc3OC(F)(F)F)cc2)c[nH]1)C1CCOCC1 [24-2]	C (C represents pEC50 between and 9 and about 10, (EC50 between 1 nM and 0.1 nM))	–	–
COC(=O)N[C@H](C(=O)N1CC(C)(C)C[C@H]1c1nc(-c2ccc(-c3ccc(C(=O)Nc4ccc(N5CCN(C(=O)C(C)(C)C)C[C@H]5C)nc4)cc3OC(F)(F)F)cc2)c[nH]1)C(C)C [Example 6-23]	–	1 to 10	–
CNC(=O)N1CCN(c2ccc(C(=O)Nc3cc(OC(F)(F)F)c(-c4ccc(-c5c[nH]c([C@@H]6C[C@H](OC)CN6C(=O)[C@@H](NC(=O)OC)C6CCOCC6)n5)cc4)cc3Cl)cn2)[C@H](C)C1 [Example 28-13]	D (D represents pEC50>10 (EC50<0.1 nM))	–	–
COC(=O)NC(C(=O)N1CC(C)CC1c1nc(-c2ccc(-c3ccc(NC(=O)c4ccc(N5CCN(C(=O)C(C)(C)C)CC5C)nc4)cc3OC(F)(F)F)cc2)c[nH]1)C(C)OC (stereo not shown) [Example 13-14]	D (D represents pEC50>10 (EC50<0.1 nM))	–	–
COC(=O)N[C@H](C(=O)N1C[C@@H](C)C[C@H]1c1nc(-c2ccc(-c3cc(Cl)c(NC(=O)c4ccc(N5CCN(C(=O)C(C)(C)CN)C[C@H]5C)nc4)cc3OC(F)(F)F)cc2)c[nH]1)C(C)C [Example 12-36]	–	10 to 1000	–
COC(=O)N[C@H](C(=O)N1C[C@@H](C)C[C@H]1c1nc(-c2ccc(-c3cc(Cl)c(NC(=O)c4ccc(N5CCN(C(=O)[C@@H]6CCN6C(C)C)C[C@H]5C)nc4)cc3OC(F)(F)F)cc2)c[nH]1)C(C)C [Example 1-85]	B (B represents pEC50 between 8 and 9 (EC50 between 1 and 10 nM))	–	–
COC(=O)N[C@H](C(=O)N1C[C@@H](C)C[C@H]1c1nc(-c2ccc(-c3cc(Cl)c(NC(=O)c4ccc(N5CCN(C(=O)C(C)(C)N6CCOCC6)C[C@H]5C)nc4)cc3OC(F)(F)F)cc2)c[nH]1)C(C)C [Example 12-26]	–	< 0.1	–
COC(=O)N[C@H](C(=O)N1C[C@@H](OC)C[C@H]1c1nc(-c2ccc(-c3ccc(NC(=O)c4ccc(N5CCN(C(=O)C(C)(C)CO)C[C@H]5C)nc4)cc3OC(F)(F)F)cc2)c[nH]1)C1CCOCC1 [Example 28-4]	D (D represents pEC50>10 (EC50<0.1 nM))	–	–
COC(=O)N[C@H](C(=O)N1C[C@@H](C)C[C@H]1c1nc(-c2ccc(-c3cc(F)c(C(=O)Nc4ccc(N5CCN(C(=O)[C@H]6CC6(C)C)C[C@H]5C)nc4)cc3OC(F)(F)F)cc2)c[nH]1)C(C)C [Example 4-43]	C (C represents pEC50 between and 9 and about 10, (EC50 between 1 nM and 0.1 nM))	–	–
COC(=O)NC(C(=O)N1CC(C)CC1c1nc(-c2ccc(-c3ccc(NC(=O)c4ccc(N5CCN(C(=O)C(C)(C)C)CC5C)nc4)cc3OC(F)(F)F)cc2)c[nH]1)C(C)(C)O (stereo not shown) [Example 13-15]	D (D represents pEC50>10 (EC50<0.1 nM))	–	–
CCC(=O)N1CCC[C@@H]1C(=O)N1CCN(c2ccc(C(=O)Nc3cc(OC(F)(F)F)c(-c4ccc(-c5c[nH]c([C@@H]6C[C@H](C)CN6C(=O)[C@@H](NC(=O)OC)C(C)C)n5)cc4)cc3Cl)cn2)[C@H](C)C1 [Example 1-48]	D (D represents pEC50>10 (EC50<0.1 nM))	–	–
CCC(=O)N1CCN(c2ccc(C(=O)Nc3cc(OC(F)(F)F)c(-c4ccc(-c5c[nH]c([C@@H]6C[C@H](C)CN6C(=O)[C@@H](NC(=O)OC)C(C)C)n5)cc4)cc3Cl)cn2)[C@H](C)C1 [Example 1-73]	D (D represents pEC50>10 (EC50<0.1 nM))	–	–
COC(=O)NC(C(=O)N1C[C@@H](C)C[C@H]1c1nc(-c2ccc(-c3ccc(C(=O)Nc4ccc(N5CCN(C(=O)C(C)(C)C)C[C@H]5C)nc4)c(Cl)c3OC(F)(F)F)cc2)c[nH]1)C(C)C (stereo partly shown) [Example 25-4]	–	0.1 to 1	–
COC(=O)N[C@H](C(=O)N1C[C@@H](C)C[C@H]1c1nc(-c2ccc(-c3cc(Cl)c(NC(=O)c4ccc(N5CCN(C(=O)C6CCC6(C)C)C[C@H]5C)nc4)cc3OC(F)(F)F)cc2)c[nH]1)C(C)C (stereo partly shown) [Example 12-21]	–	< 0.1	–
COC(=O)NCC(C)(C)C(=O)N1CCN(c2ccc(C(=O)Nc3cc(OC(F)(F)F)c(-c4ccc(-c5c[nH]c([C@@H]6C[C@H](C)CN6C(=O)[C@@H](NC(=O)OC)C(C)C)n5)cc4)cc3Cl)cn2)[C@H](C)C1 [Example 12-39]	–	< 0.1	–
COC(=O)N[C@H](C(=O)N1C[C@@H](C)C[C@H]1c1nc(-c2ccc(-c3cc(Cl)c(NC(=O)c4ccc(N5CCN(C(=O)c6c[nH]cn6)C[C@H]5C)nc4)cc3C(F)(F)F)cc2)c[nH]1)C(C)C [Example 1-32]	D (D represents pEC50>10 (EC50<0.1 nM))	–	–
COC(=O)NC(C(=O)N1CC(OC)CC1c1nc(-c2ccc(-c3cc(Cl)c(NC(=O)c4ccc(N5CCN(C(=O)C(C)(C)CO)CC5C)nc4)cc3OC(F)(F)F)cc2)c[nH]1)C(C)(C)O (stereo not shown) [Example 16-9]	D (D represents pEC50>10 (EC50<0.1 nM))	–	–
COC(=O)N[C@H](C(=O)N1C[C@@H](SC)C[C@H]1c1nc(-c2ccc(-c3ccc(C(=O)Nc4ccc(N5CCN(C(=O)C(C)(C)C)C[C@H]5C)nc4)cc3OC(F)(F)F)cc2)c[nH]1)C(C)C [Example 6-15]	–	0.1 to 1	–
COC(=O)N[C@H](C(=O)N1C[C@@H](C)C[C@H]1c1nc(-c2ccc(-c3cc(Cl)c(NC(=O)c4ccc(N5CCN(C(=O)C6(N(C)C)CC6)C[C@H]5C)nc4)cc3OC(F)(F)F)cc2)c[nH]1)C(C)C [Example 12-10]	–	< 0.1	–
COC(=O)N[C@H](C(=O)N1C[C@@H](C)C[C@H]1c1nc(-c2ccc(-c3cc(Cl)c(NC(=O)c4ccc(N5CCN(C(=O)C(C)(C)CO)C[C@H]5C)nc4)cc3C(F)(F)F)cc2)c[nH]1)C1CCOCC1 [Example 19-4]	D (D represents pEC50>10 (EC50<0.1 nM))	–	–
